Where two headings read alike, the source gives them in different places. Starred links: 1 amine or outer side, 2 acyl side, 3 side chain; linkers in the order of their positions; H or OH if unused. Non-standard residues stand in square brackets, D forms with d. Residues, ends and D or L forms follow the SMILES beside them. *: point of attachment. X1 = O=C(O)CN1CCN(CC(=O)O)CCN([C@H](CCC(=O)*)C(=O)O)CCN(CC(=O)O)CC1; Benzoyl(4-SiFtBu2) = CC(C)(C)[Si](F)(c1ccc(C(=O)*)cc1)C(C)(C)C; DOTA = O=C(O)CN1CCN(CC(=O)O)CCN(CC(=O)*)CCN(CC(=O)O)CC1; d(γGlu) = O=C(O)[C@@H](CCC(=O)[*:2])N[*:1]; Nle = CCCC[C@H](N)C(=O)O; dDap = NC[C@@H](N)C(=O)O
Columns and labels:
CCK-2R = molecular target: T1, CCK-2R (Rattus norvegicus, UniProt P30553); experiment: Competitive binding (IC50) on AR42J cells with [177Lu]Lu-DOTA-PP-F11N as radiolabelled reference; conditions: natLu-labelled peptide; AR42J cells 2.0 × 10^5/well, 3 h, 37 °C, [177Lu]Lu-DOTA-PP-F11N 0.3 pmol/well
T1 construct: CCK-2R expressing rat pancreatic cancer cells AR42J (CLS GmbH, Eppelheim,; host or cells: AR42J rat pancreatic cancer cells
T1 sequence (P30553 1-452): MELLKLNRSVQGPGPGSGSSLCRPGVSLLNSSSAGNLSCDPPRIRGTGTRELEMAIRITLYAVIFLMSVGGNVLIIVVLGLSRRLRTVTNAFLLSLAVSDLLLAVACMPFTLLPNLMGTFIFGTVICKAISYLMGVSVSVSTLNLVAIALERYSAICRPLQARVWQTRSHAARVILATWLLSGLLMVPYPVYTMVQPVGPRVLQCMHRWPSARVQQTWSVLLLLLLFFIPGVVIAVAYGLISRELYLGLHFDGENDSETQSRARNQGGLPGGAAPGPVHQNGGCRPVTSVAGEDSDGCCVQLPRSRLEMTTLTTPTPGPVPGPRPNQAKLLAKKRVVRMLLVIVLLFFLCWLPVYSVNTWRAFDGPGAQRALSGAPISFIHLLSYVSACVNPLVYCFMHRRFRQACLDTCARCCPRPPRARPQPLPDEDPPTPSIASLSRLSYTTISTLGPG
Experimental: Detailed description of all cell-based experiments is provided in the Supplementary Materials. In brief, competitive binding studies were conducted on AR42J cells (2.0 × 10^5 cells per 1 mL/well) via incubation at 37 °C for 3 h using [^177Lu]Lu-DOTA-PP-F11N (0.3 pmol) as a radiolabelled reference (n = 3).
Cell Culture. CCK-2R expressing rat pancreatic cancer cells AR42J (CLS GmbH, Eppelheim, Germany) were cultivated in monolayers in CELLSTAR ® cell culture flasks acquired from Greiner Bio-One GmbH (Frickenhausen, Germany) at 37 °C in a humidified atmosphere (5% CO2) using a HERAcell 150i-Incubator (Thermo Fisher Scientific Inc., Waltham, United States). As nutrient medium RPMI 1640 medium, supplemented with 5 mM L-Gln 5 mL non-essential amino acids (100×) and 10% FCS, was used. Furthermore, a Dulbecco’s PBS solution with 0.1% EDTA (v/v) was applied to detach the cells for cell passaging. The detached cells were counted using a Neubauer hemocytometer ( Paul Marienfeld, Lauda-Königshofen, Germany). In addition, all operations under sterile conditions were accomplished using a MSC-Advantage safety workbench (Thermo Fisher Scientific Inc., Waltham, United States).
Determination of IC50. AR42J cells (2.0 × 10^5 cells/well) were seeded into 24-well plates 24 ± 2 h prior to testing, using 1 mL of nutrient medium (RPMI 1640, 5 mM L-Gln, 5 mL non-essential amino acids (100×), 10% FCS). Cells were incubated at 37 °C in a humidified atmosphere (5% CO2).
After removal of the medium, each well was washed with 500 μL PBS. For the cell-based assay, 200 μL of nutrient medium (+5% BSA), [177Lu]Lu-DOTA-PP-F11N (25 μL, 0.3 pmol) as a radiolabeled reference and 25 μL of the peptide of interest in increasing concentrations (10−10 to 10−4 M) in triplicate were added to the cells. Thereafter, the assay was incubated for 3 h at 37 °C and thereafter, the supernatant was collected. The cells were washed with 300 μL PBS and the collected supernatant fractions were unified.
After lysis of the cells with NaOH (300 μL, 1 N) for 15 min, the respective wells were washed with NaOH (300 μL, 1 N) and both fractions were unified. The radioactivity of both, the supernatant and the lysed fractions was quantified using a γ-counter (PerkinElmer Inc., Waltham, United States ). The obtained data were evaluated via the GraphPad PRISM software ( GraphPad Software Inc., La Jolla, United States), which calculates the halfmaximal inhibitory concentration ( IC50) of the peptides. […]

[1] = Lipophilicity, n-octanol/PBS (pH 7.4) distribution coefficient; format: physicochemical
Experimental: Lipophilicity (depicted as octanol-phosphate-buffered saline solution (PBS, pH = 7.4) distribution coefficient, logD7.4) was determined via dissolving the ^177Lu-labelled peptide (approx. 1 MBq) in a mixture (1/1, v/v) of n-octanol and PBS. The suspension was vortexed in a reaction vial (1.5 mL) for 3 min at RT and the vial was centrifuged at 9000× […] for 5 min (Biofuge 15, Heraus Sepatech GmbH, Osterode, Germany). 200 μL aliquots of both layers were measured separately in a γ-counter (Perkin Elmer, Waltham, MA, USA). The experiment was repeated at least five times.

[2] = 177Lu-labelled peptide, n-octanol/PBS pH 7.4, read-out: logD7.4

| logD ([1]; pH 7.4) | SMILES | IC50 (CCK-2R) [nM] | logD [1, 2] |
| --- | --- | --- | --- |
|  | CCCC[C@H](NC(=O)[C@H](Cc1c[nH]c2ccccc12)NC(=O)CNC(=O)[C@H](Cc1ccc(O)cc1)NC(=O)[C@H](C)NC(=O)[C@@H](CCC(=O)O)NC(=O)[C@@H](CCC(=O)O)NC(=O)[C@@H](CNC(=O)c1ccc([Si](F)(C(C)(C)C)C(C)(C)C)cc1)NC(=O)[C@@H](CCC(=O)O)NC(=O)[C@@H](CCC(=O)O)NC(=O)[C@@H](CCC(=O)O)NC(=O)[C@@H](CCC(=O)O)NC(=O)CC[C@H](C(=O)O)N1CCN(CC(=O)O)CCN(CC(=O)O)CCN(CC(=O)O)CC1)C(=O)N[C@@H](CC(=O)O)C(=O)N[C@@H](Cc1ccccc1)C(N)=O [[nat/177Lu]Lu-(R)-DOTAGA-rhCCK-3, metal not drawn] (X1-[dE][dE][dE][dE][dDap](Benzoyl(4-SiFtBu2))[dE][dE]AYGW[Nle]DF-NH2) | 156 ± 4 | -2.03 ± 0.1 |
|  | CCCC[C@H](NC(=O)[C@H](Cc1c[nH]c2ccccc12)NC(=O)CNC(=O)[C@H](Cc1ccc(O)cc1)NC(=O)[C@H](C)NC(=O)CC[C@@H](NC(=O)CC[C@@H](NC(=O)[C@@H](CNC(=O)c1ccc([Si](F)(C(C)(C)C)C(C)(C)C)cc1)NC(=O)CC[C@@H](NC(=O)CC[C@@H](NC(=O)CC[C@@H](NC(=O)CC[C@@H](NC(=O)CC[C@H](C(=O)O)N1CCN(CC(=O)O)CCN(CC(=O)O)CCN(CC(=O)O)CC1)C(=O)O)C(=O)O)C(=O)O)C(=O)O)C(=O)O)C(=O)O)C(=O)N[C@@H](CC(=O)O)C(=O)N[C@@H](Cc1ccccc1)C(N)=O [[nat/177Lu]Lu-(R)-DOTAGA-rhCCK-12, metal not drawn] ({X1-d(γGlu)-d(γGlu)-d(γGlu)-d(γGlu)}-[dDap](Benzoyl(4-SiFtBu2))[d(γGlu)][d(γGlu)]AYGW[Nle]DF-NH2) |  | -2.34 ± 0.05 |
|  | CCCC[C@H](NC(=O)[C@H](Cc1c[nH]c2ccccc12)NC(=O)CNC(=O)[C@H](Cc1ccc(O)cc1)NC(=O)[C@H](C)NC(=O)CC[C@@H](NC(=O)CC[C@@H](NC(=O)CC[C@@H](NC(=O)[C@@H](CNC(=O)c1ccc([Si](F)(C(C)(C)C)C(C)(C)C)cc1)NC(=O)CC[C@@H](NC(=O)CC[C@@H](NC(=O)CC[C@@H](NC(=O)CC[C@H](C(=O)O)N1CCN(CC(=O)O)CCN(CC(=O)O)CCN(CC(=O)O)CC1)C(=O)O)C(=O)O)C(=O)O)C(=O)O)C(=O)O)C(=O)O)C(=O)N[C@@H](CC(=O)O)C(=O)N[C@@H](Cc1ccccc1)C(N)=O [[nat/177Lu]Lu-(R)-DOTAGA-rhCCK-13, metal not drawn] ({X1-d(γGlu)-d(γGlu)-d(γGlu)}-[dDap](Benzoyl(4-SiFtBu2))[d(γGlu)][d(γGlu)][d(γGlu)]AYGW[Nle]DF-NH2) |  | -2.57 ± 0.06 |
|  | CCCC[C@H](NC(=O)[C@H](Cc1c[nH]c2ccccc12)NC(=O)CNC(=O)[C@H](Cc1ccc(O)cc1)NC(=O)[C@H](C)NC(=O)CC[C@@H](NC(=O)CC[C@@H](NC(=O)CC[C@@H](NC(=O)CC[C@@H](NC(=O)[C@@H](CNC(=O)c1ccc([Si](F)(C(C)(C)C)C(C)(C)C)cc1)NC(=O)CC[C@@H](NC(=O)CC[C@@H](NC(=O)CC[C@H](C(=O)O)N1CCN(CC(=O)O)CCN(CC(=O)O)CCN(CC(=O)O)CC1)C(=O)O)C(=O)O)C(=O)O)C(=O)O)C(=O)O)C(=O)O)C(=O)N[C@@H](CC(=O)O)C(=O)N[C@@H](Cc1ccccc1)C(N)=O [[nat/177Lu]Lu-(R)-DOTAGA-rhCCK-14, metal not drawn] ({X1-d(γGlu)-d(γGlu)}-[dDap](Benzoyl(4-SiFtBu2))[d(γGlu)][d(γGlu)][d(γGlu)][d(γGlu)]AYGW[Nle]DF-NH2) |  | -2.26 ± 0.05 |
|  | CCCC[C@H](NC(=O)[C@H](Cc1c[nH]c2ccccc12)NC(=O)CNC(=O)[C@H](Cc1ccc(O)cc1)NC(=O)[C@H](C)NC(=O)CC[C@@H](NC(=O)CC[C@@H](NC(=O)CC[C@@H](NC(=O)CC[C@@H](NC(=O)CC[C@@H](NC(=O)[C@@H](CNC(=O)c1ccc([Si](F)(C(C)(C)C)C(C)(C)C)cc1)NC(=O)CC[C@@H](NC(=O)CC[C@H](C(=O)O)N1CCN(CC(=O)O)CCN(CC(=O)O)CCN(CC(=O)O)CC1)C(=O)O)C(=O)O)C(=O)O)C(=O)O)C(=O)O)C(=O)O)C(=O)N[C@@H](CC(=O)O)C(=O)N[C@@H](Cc1ccccc1)C(N)=O [[nat/177Lu]Lu-(R)-DOTAGA-rhCCK-15, metal not drawn] ({X1-d(γGlu)}-[dDap](Benzoyl(4-SiFtBu2))[d(γGlu)][d(γGlu)][d(γGlu)][d(γGlu)][d(γGlu)]AYGW[Nle]DF-NH2) |  | -2.5 ± 0.02 |
|  | CCCC[C@H](NC(=O)[C@H](Cc1c[nH]c2ccccc12)NC(=O)CNC(=O)[C@H](Cc1ccc(O)cc1)NC(=O)[C@H](C)NC(=O)CC[C@@H](NC(=O)CC[C@@H](NC(=O)CC[C@@H](NC(=O)CC[C@@H](NC(=O)CC[C@@H](NC(=O)CC[C@@H](NC(=O)CC[C@@H](NC(=O)[C@@H](CNC(=O)c1ccc([Si](F)(C(C)(C)C)C(C)(C)C)cc1)NC(=O)CC[C@H](C(=O)O)N1CCN(CC(=O)O)CCN(CC(=O)O)CCN(CC(=O)O)CC1)C(=O)O)C(=O)O)C(=O)O)C(=O)O)C(=O)O)C(=O)O)C(=O)O)C(=O)N[C@@H](CC(=O)O)C(=O)N[C@@H](Cc1ccccc1)C(N)=O [[nat/177Lu]Lu-(R)-DOTAGA-rhCCK-17, metal not drawn] |  | -2.1 ± 0.06 |
|  | CCCC[C@H](NC(=O)[C@H](Cc1c[nH]c2ccccc12)NC(=O)CNC(=O)[C@H](Cc1ccc(O)cc1)NC(=O)[C@H](C)NC(=O)CC[C@@H](NC(=O)CC[C@@H](NC(=O)CC[C@@H](NC(=O)CC[C@@H](NC(=O)CC[C@@H](NC(=O)CC[C@@H](NC(=O)CC[C@@H](NC(=O)CC[C@@H](NC(=O)[C@@H](CNC(=O)c1ccc([Si](F)(C(C)(C)C)C(C)(C)C)cc1)NC(=O)CC[C@H](C(=O)O)N1CCN(CC(=O)O)CCN(CC(=O)O)CCN(CC(=O)O)CC1)C(=O)O)C(=O)O)C(=O)O)C(=O)O)C(=O)O)C(=O)O)C(=O)O)C(=O)O)C(=O)N[C@@H](CC(=O)O)C(=O)N[C@@H](Cc1ccccc1)C(N)=O [[nat/177Lu]Lu-(R)-DOTAGA-rhCCK-18, metal not drawn] |  | -2.16 ± 0.09 |
| -4.38 ± 0.05 | CCCC[C@H](NC(=O)[C@H](Cc1c[nH]c2ccccc12)NC(=O)CNC(=O)[C@H](Cc1ccc(O)cc1)NC(=O)[C@H](C)NC(=O)CC[C@@H](NC(=O)CC[C@@H](NC(=O)CC[C@@H](NC(=O)CC[C@@H](NC(=O)CC[C@@H](NC(=O)CC[C@@H](NC(=O)CN1CCN(CC(=O)O)CCN(CC(=O)O)CCN(CC(=O)O)CC1)C(=O)O)C(=O)O)C(=O)O)C(=O)O)C(=O)O)C(=O)O)C(=O)N[C@@H](CC(=O)O)C(=O)N[C@@H](Cc1ccccc1)C(N)=O [[nat/177Lu]Lu-DOTA-PP-γ-F11N, metal not drawn] ({DOTA-d(γGlu)-d(γGlu)-d(γGlu)-d(γGlu)-d(γGlu)-d(γGlu)}-AYGW[Nle]DF-NH2) |  |  |
| -4.3 ± 0.08 | CSCC[C@H](NC(=O)[C@H](Cc1c[nH]c2ccccc12)NC(=O)CNC(=O)[C@H](Cc1ccc(O)cc1)NC(=O)[C@H](C)NC(=O)CC[C@@H](NC(=O)CC[C@@H](NC(=O)CC[C@@H](NC(=O)CC[C@@H](NC(=O)CC[C@@H](NC(=O)CC[C@@H](NC(=O)CN1CCN(CC(=O)O)CCN(CC(=O)O)CCN(CC(=O)O)CC1)C(=O)O)C(=O)O)C(=O)O)C(=O)O)C(=O)O)C(=O)O)C(=O)N[C@@H](CC(=O)O)C(=O)N[C@@H](Cc1ccccc1)C(N)=O [[nat/177Lu]Lu-γ-CP04, metal not drawn] |  |  |

Source: paper PMC9783573, “Introduction of a SiFA Moiety into the D-Glutamate Chain of DOTA-PP-F11N Results in Radiohybrid-Based CCK-2R-Targeted Compounds with Improved Pharmacokinetics In Vivo” (Pharmaceuticals, 2022)
